Structures can show the parent of a compound that is named as a salt.

Experimental findings from patent publication US4798898A, “Antitussive and mucus regulating 2-substituted thiazolidines” (Boehringer Biochemia Robin S.p.A., priority 1984, dated 1989) are described below.

In data set [1] the test system is guinea pig trachea smooth muscle strips. Nature of the data set: In vitro relaxation of guinea pig trachea smooth muscle strips contracted by methacoline.
Data set [2] has as its system bronchospasm induced by i.v. histamine. Nature of the data set: Resolution of bronchospasm induced by i.v. histamine in anesthetized guinea-pigs (Konzett-Ressler test). The data set is classed as in vivo. As to conditions: intrajugular administration; more active than aminophylline.
Data set [3] has as its system pathological sputum of bronchitic rabbits. The data set is described as follows: Mucus regulating properties in bronchitic rabbits (sputum AUC as % compared to bronchitic controls). To be noted: Table 2; oral, equimolecular amounts to S-carboxymethyl cysteine. The data set is classed as in vivo, male New Zealand white rabbits. As for the experimental part: The animals are submitted to inhalation of a 5% H2 SO3 aqueous solution by aerosol (exposition of 3 hours a day for 3 alternate days), to induce a chronic bronchial inflammatory disease which causes a production of pathological sputum in the bronchial tree.
Aim of the experiments is to evaluate modifications of selective parameters such as dry weight of the sputum, viscosity, content in proteins, phospholipids, galactose, sialic acid and fucose, induced in this pathological sputum by pharmacological treatment with the compounds of the invention.
To this purpose, the sputum produced in the bronchial tree is collected daily, through a "T" shaped glass cannula, inserted in the trachea, before and after oral twice a day (9.00 a.m. and 4.00 p.m.) treatment with one of the compounds of the invention.
The schedule treatment procedure is shown in the following Scheme 1: [drawing 21] where 0 indicates the day of implantation of the tracheal cannula; -7-5-3 indicate the days of H2 SO3 treatment (H); 1, 2, 3, 4 indicate the days of oral administration of the compounds of the invention (T) and the time of mucus collection (M).
The mucus collected in day 1 in the morning is considered as a blank; 7 indicates the day of the animal sacrifice after the mucous collection.
The sputum samples are stored in the freezer (-20° C.) until the investigation of biological and rheological parameters is carried out.
The samples are investigated for relative viscosity, measured at 37° C. with a Brookfield viscometer (model LT VD) equipped with a 1,565° cone-plate, and aliquoted for biochemical analysis of protein, phospholipids, galactose, sialic acid and fucose contents. Dry weight of the mucus is also determined. For each parameter, cumulative data are referred to a seven days period after the beginning of the treatment and they are extrapolated using the AUC method (area under curve) calculated by the trapazoidal rule. Finally the data are compared with data obtained from controls (vehicle treatment), non bronchitic rabbits (vehicle treatment) and positive controls bronchitic rabbits treated with 0.153M […].

Data set [4] can be described thus: Acute toxicity in mice. As to conditions: mouse, in vivo.
The test system of data set [5] is mice. The data set is described as follows: Sedative effect. It is filed as in vivo.

`COc1ccccc1OCC1SCCN1C(=O)C=Cc1cc(CN2CCOCC2)c(O)c(OC)c1` (stereo not shown) [3-(3'-morpholinomethyl-4'-hydroxy-3'-methoxy-cinnamoyl)-2-(O-methoxyphenoxy)methylthiazolidine hydrochloride]: in data set [1], the “spasmolytic activity (in words)” value is reported as “favourably compares with that of dihydroxypropyltheophylline”. Further, in data set [1] (Cavia porcellus, contracted by methacoline, read-out: ED50 (relaxation of trachea smooth muscle strips)), the EC50 amounted to 190 µM. Further, in data set [2], the “activity relative to aminophylline in the resolution of bronchospasm” value was 3-6 times.
The term LD50 denotes the dose expected to kill half of the subjects tested. In the case of `CCOC(=O)[C@@H]1CSC(COc2ccccc2OC)N1C(=O)CSC(C)=O` (stereo partly shown) [4-carbethoxy-2-(o-methoxyphenoxy)methyl-3-acetylthioacetyl-thiazolidine], in data set [3], the “Fucose (mg/ml), AUC as a 100% compared to bronchitic controls” value is recorded as 111%; the “Galactose (mg/ml), AUC as a 100% compared to bronchitic controls” value was found to be 69%; the “Mucus production (ml/kg), AUC as a 100% compared to bronchitic controls” value was determined as 65%; the “Phospholipids (mg/ml), AUC as a 100% compared to bronchitic controls” value is 102%. Moreover, in data set [3], the “Protein (mg/ml), AUC as a 100% compared to bronchitic controls” value is given as 79%; the “Sialic acid (mg/ml), AUC as a 100% compared to bronchitic controls” value came to 78%; the “Viscosity (cps), AUC as a 100% compared to bronchitic controls” value stood at 91%. In addition, in data set [4] (ip), the LD50 was found to be 670 mg/kg. Besides, the LD50 in data set [4] (po, os) was 760 mg/kg. Further, the “sedative effect, starting dose” value in data set [5] was at least 30 mg/kg.
